US20100292229A1, “TRYPHOSTIN-ANALOGS FOR THE TREATMENT OF CELL PROLIFERATIVE DISEASES” (The Board of Regents of the University of Texas System, priority 2006, published 2010)
Where two headings read alike, the source gives them in different places.

Key:
[1] = tested on: K562 cells; assay: MTT assay of cell growth and survival, K562 cells; format: cell-based, human; details: FIG. 21; anti-tumor activity
Procedure: (§1) All compounds are tested for purity (HPLC, NMR) and the calculated molecular weight is used to make up a 10 mM stock solution of each compound (in 100% dimethylsulfoxide or 50% dimethylsulfoxide:50% polyethylene glycol 300). Compounds are diluted into cell culture media consisting of RPMI 1640 with 10% fetal bovine serum to a final starting concentration of 10 μM. [Highest final DMSO content=0.1%.]. Tumor cells (20,000 for non-adherent cells; 5,000 for adherent cells) are plated into individual wells of a 96-well culture plate in 0.1 ml of culture media. Diluted compounds are added to individual wells containing pre-plated cells (final volume 0.2 ml) and incubated at 37° C. for 24 to 72 h. Wells receiving vehicle alone acted as a control.
(§2) MTT (viability) assay. MTT reagent (20 μl of 5 mg/ml stock solution, Sigma) is added to the cells and the plates are incubated at 37° C. for another 2 h. Cells are lysed by adding 100 μl of lysis buffer (20% SDS in 50% N,N-dimethylformamide (Sigma) adjusted to pH 4.7 by 80% acetic acid and 1 M HCl such that the final concentration of acetic acid is 2.5% and HCl is 2.5%) into each well and incubated for 6 h. The OD570 of each sample is determined by using a SPECTRA MAX M2 plate reader (Molecular Devices). The OD in control and treated wells is used as an estimate of the effect of compounds on cell growth and survival.
Cell lines. […]

[2] = tested on: BV-173R cells (T315I BCR-ABL); assay: MTT assay after 72 h, BV-173R cells; format: cell-based, human; details: 72 h of drug incubation
[3] = tested on: Stat3; assay: IL-6 stimulated Stat3 activation (pY-Stat3) immunoblot in MM-1 cells; format: cell-based
Procedure: Left: MM-1 cells were pretreated with Degrasyn (5 μM WP1130) for 2 h before incubation with IL-6 (10 ng/ml) for 15 min. Cell lysates were prepared and assessed for Stat3 activation (pY-Stat3) and protein levels (Stat3) by immunoblotting. Actin was used as a control for protein loading.
Left: MM-1 cells were pretreated with buffer alone (−), AG490 (50 μM) or Degrasyn (5 μM) for 2 h before incubation with IL-6 for 15 min. Cell lysates were prepared and Jak2 was immunoprecipitated and immunoblotted with anti-Jak2 (top). Cell lysates (50 μg) were immunoblotted for pY-Stat3, Stat3 or actin.
Western Blot analysis. Cells were harvested, washed twice in cold 1×PBS and lysed in modified RIPA lysis buffer (150 mM NaCl, 1% NP-40, 0.5% Na-deoxycholate [DOC], 0.1% Na-dodecyl sulfate [SDS], 50 mM Tris-HCl (pH 7.5), 1 mM EDTA, 1 mM NaF, 2 mM Na-vanadate, with protease inhibitors (1 mM PMSF, 1 mM benzamidine, 10 μg/ml aprotinin, 10 μg/ml leupeptin) on ice for 30 min. The lysed cells were centrifuged at 13,000 rpm for 30 min and the supernatant collected. The protein concentration of the cell lysate was determined by the Bradford Protein Assay. Fifty to 60 μg of protein were resolved in a 10% SDS-PAGE, and transferred to a PVDF membrane. […]

[4] = target: T1, c-myc (Homo sapiens, UniProt P01106); assay: c-myc protein immunoblot in MM-1 cells; format: cell-based
T1 construct: endogenous in cells; host or cells: MM-1 cells
Procedure: Top: MM-1 cells were incubated with 5 μM Degrasyn for the interval noted before cell lysates were prepared and subjected to immunoblotting for c-myc and actin as a protein loading control.
Middle: MM-1 cells were treated with the indicated concentration of Degrasyn for 1 h before lysates were immunoblotted for c-myc and actin.
Bottom: MM-1 cells were treated as indicated before extraction of total RNA (TRIzol). RNA was resolved by agarose electrophoresis, transferred to a membrane and hybridized with a c-myc probe to determine the level of c-myc RNA in each sample. The ethidium bromide stained gel was photographed and 28S RNA content was detected as a measure of RNA content in each lane.
MM-1 cells were pretreated with protease/proteosome inhibitors (LLnL; LLnM; E-64d; MG132; PS341; Chloroquine; Ammonium Chloride; Cycloheximide) for 2 h before the addition of 5 μM Degrasyn or vehicle alone (DMSO as indicated) for an additional 2 h. Cell lysates were prepared and equal protein aliquots were subjected to immunoblotting for c-myc, Max (a c-myc binding partner) or actin as a protein loading control.
Pictured: MM-1 cells were treated with biotinylated Degrasyn (Bio-Deg) or Degrasyn (at the indicated concentration) for 1 h before analyzing effects on c-myc as described in FIG. 15.
Western Blot analysis. Cells were harvested, washed twice in cold 1×PBS and lysed in modified RIPA lysis buffer (150 mM NaCl, 1% NP-40, 0.5% Na-deoxycholate [DOC], 0.1% Na-dodecyl sulfate [SDS], 50 mM Tris-HCl (pH 7.5), 1 mM EDTA, 1 mM NaF, 2 mM Na-vanadate, with protease inhibitors (1 mM PMSF, 1 mM benzamidine, 10 μg/ml aprotinin, 10 μg/ml leupeptin) on ice for 30 min. The lysed cells were centrifuged at 13,000 rpm for 30 min and the supernatant collected. The protein concentration of the cell lysate was determined by the Bradford Protein Assay. Fifty to 60 μg of protein were resolved in a 10% SDS-PAGE, and transferred to a PVDF membrane. Western blotting was performed using specific primary antibodies Peroxidase-conjugated affiniPure anti-Mouse Anti-Rabbit secondary antibodies (Jackson Immunoresearch Laboratories, West Grove, Pa.). The proteins were visualized with ECL Plus reagents (Amersham Biosciences).

[5] = tested on: CML cells expressing the T315I mutant BCR-ABL; assay: Clonal outgrowth of CML cells from imatinib resistant patients; format: cell-based, human; details: cells of 2 patients that failed imatinib therapy
Source text: Isolation of cellular fractions from clinical specimens. Mononuclear cells were isolated from peripheral blood or bone marrow of imatinib-resistant CML patients after informed consent was obtained for a protocol reviewed and approved by the Institutional Review Board of M.D. Anderson Cancer Center. Cells were purified on Ficoll-Hypaque gradients.

[6] = tested on: MM-1 cells; assay: MTT assay of cell growth and survival, MM-1 cells; format: cell-based
Procedure: as §1, §2
Cell lines. […] A375 melanoma cells were grown and maintained in the same media. Ba/F3 parental cells were grown in RPMI 1640 containing 10% heat inactivated fetal bovine serum and 2 mM glutamine supplemented with IL-3 (1 ng/ml) while Ba/F3 cells stably expressing Bcr/Abl or the T315I mutant of Bcr/Abl were grown in RPMI 1640 containing 10% heat inactivated fetal bovine serum and 2 mM glutamine in the absence of IL-3. Normal human dermal fibroblasts (NHDF) were obtained from Cambrex (Walkersville, Md.) and grown in specially formulated media (obtained through Cambrex) with 20% fetal calf serum.
IC50 determinations. The anti-tumor activity of certain compounds of the present invention against MM-1 cell lines was investigated and the IC50 values calculated (FIGS. 33A-F). In a typical experiment, MM-1 cell lines were incubated with a range of compound concentrations for 72 h to determine the concentration required to inhibit cell growth or induce apoptosis by 50% (IC50). MTT assays as described above were used to conduct this analysis.

T1 sequence (P01106 16-454 limits assumed): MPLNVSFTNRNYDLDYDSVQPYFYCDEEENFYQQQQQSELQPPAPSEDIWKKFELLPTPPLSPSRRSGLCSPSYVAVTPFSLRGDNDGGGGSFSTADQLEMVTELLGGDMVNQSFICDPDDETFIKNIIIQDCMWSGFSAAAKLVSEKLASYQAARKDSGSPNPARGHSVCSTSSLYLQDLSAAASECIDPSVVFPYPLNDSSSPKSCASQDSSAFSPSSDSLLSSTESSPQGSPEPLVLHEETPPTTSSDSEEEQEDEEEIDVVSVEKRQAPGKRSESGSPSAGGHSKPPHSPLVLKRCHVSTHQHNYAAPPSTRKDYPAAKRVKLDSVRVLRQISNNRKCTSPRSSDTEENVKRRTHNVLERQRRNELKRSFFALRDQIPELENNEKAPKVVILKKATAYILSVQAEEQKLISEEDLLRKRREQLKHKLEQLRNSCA

Question: With `CCC[C@H](NC(=O)/C(C#N)=C/c1cccc(Br)n1)c1ccccc1` [Degrasyn] as the compound, how does the IC50 [1] read?
Answer: 2800 nM

Question: What about the “Activity in MTT assay, BV-173R vs BV-173” value [2] of the same compound?
Answer: equally active against both cell types

Question: What about the “Stat3 activation (pY-Stat3)” value ([3]; 5 μM, 2 h pretreatment, IL-6 10 ng/ml 15 min) of the same compound?
Answer: blocked Stat3 activation

Question: What about the “Stat3 activation compared with AG490” value ([3]; Degrasyn 5 μM vs AG490 50 μM, 2 h, IL-6 15 min) of the same compound?
Answer: reduces Stat3 activation more effectively than 10-fold greater concentrations of AG490

Question: What about the “c-myc protein content and c-myc RNA” value [4] of the same compound?
Answer: reduces c-myc protein content without effecting c-myc gene expression

Question: What about the “c-myc protein, time course” value ([4]; 5 μM) of the same compound?
Answer: caused a rapid reduction of c-myc protein

Question: And the “c-myc protein, concentration dependence” value ([4]; 1 h)?
Answer: caused a concentration dependent reduction in c-myc protein levels

Question: What about the c-myc protein levels ([4]; FIG. 21, 1 h) of the same compound?
Answer: reduced c-myc protein levels

Question: And the “Colony formation of leukemic cells” value [5]?
Answer: more effective than imatinib in suppressing colony formation

Question: What about the IC50 ([6]; FIG. 21, anti-tumor activity, read-out: IC50 for MM-1 cells) of the same compound?
Answer: 1400 nM

Question: What about the IC50 ([6]; FIG. 31, 72 h, MTT, average of 4 determinations, read-out: IC50, MM-1 cells) of the same compound?
Answer: ~1200 nM
